How the values were obtained:
[1] = Stability in the assay buffer and activity assay by HPLC; conditions: overall statement
SIRT5 = molecular target: T1, SIRT5 (Homo sapiens, UniProt Q9NXA8); assay: Fluorescent deacylation assay (succinyl-peptide), SIRT5
T1 sequence (Q9NXA8 37-310): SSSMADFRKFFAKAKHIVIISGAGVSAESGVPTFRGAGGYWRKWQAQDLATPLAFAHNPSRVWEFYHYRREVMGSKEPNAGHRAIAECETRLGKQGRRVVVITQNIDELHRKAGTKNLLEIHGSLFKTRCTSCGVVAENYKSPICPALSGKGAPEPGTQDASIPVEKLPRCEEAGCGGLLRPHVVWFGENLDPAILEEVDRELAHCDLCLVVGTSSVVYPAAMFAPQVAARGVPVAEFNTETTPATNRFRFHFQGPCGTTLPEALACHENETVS

SIRT6 = SIRT6 (Homo sapiens, UniProt Q8N6T7); assay: Fluorescent deacetylation assay, SIRT6
[2] = Stability of DMSO solution by mass spectrometry; conditions: nine months, refrigerator 4 °C
SIRT2 [3] = molecular target: T2, SIRT2 (Homo sapiens, UniProt Q8IXJ6); assay: Fluorescent deacetylation assay, SIRT2
T2 sequence (Q8IXJ6 1-389): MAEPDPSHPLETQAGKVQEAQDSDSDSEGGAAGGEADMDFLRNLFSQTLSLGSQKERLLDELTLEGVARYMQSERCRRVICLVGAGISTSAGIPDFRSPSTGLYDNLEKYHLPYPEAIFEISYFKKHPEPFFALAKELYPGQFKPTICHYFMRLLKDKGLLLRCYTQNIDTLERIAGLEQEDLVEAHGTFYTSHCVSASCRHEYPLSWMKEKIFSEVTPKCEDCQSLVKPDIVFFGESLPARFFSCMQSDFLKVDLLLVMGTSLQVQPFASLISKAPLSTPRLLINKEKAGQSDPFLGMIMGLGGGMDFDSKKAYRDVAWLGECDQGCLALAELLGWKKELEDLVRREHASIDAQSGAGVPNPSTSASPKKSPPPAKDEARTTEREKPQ

SH-SY5Y cells = assay: MTT assay for toxicity; assay type: cell-based; conditions: 24 hours
Description: To evaluate the toxicity of the compounds, we carried out MTT assays on SH-SY5Y
cells incubated with various concentrations of compounds 4 and 15 for 24 hours. We […]

SIRT1 [4] = molecular target: T3, SIRT1 (Homo sapiens, UniProt Q96EB6); assay: Fluorescent deacetylation assay, SIRT1; assay type: biochemical; conditions: 0.8 μM SIRT1, 10 μM acetyl-peptide, 1.2 mM NAD+
T3 construct: Human SIRT1 (183-505-(GGGS)2-641-665); His6 with sumo-cleavage site (N); made in house; host or cells: E. coli BL21
T3 sequence (Q96EB6 with tags, fused parts or gaps): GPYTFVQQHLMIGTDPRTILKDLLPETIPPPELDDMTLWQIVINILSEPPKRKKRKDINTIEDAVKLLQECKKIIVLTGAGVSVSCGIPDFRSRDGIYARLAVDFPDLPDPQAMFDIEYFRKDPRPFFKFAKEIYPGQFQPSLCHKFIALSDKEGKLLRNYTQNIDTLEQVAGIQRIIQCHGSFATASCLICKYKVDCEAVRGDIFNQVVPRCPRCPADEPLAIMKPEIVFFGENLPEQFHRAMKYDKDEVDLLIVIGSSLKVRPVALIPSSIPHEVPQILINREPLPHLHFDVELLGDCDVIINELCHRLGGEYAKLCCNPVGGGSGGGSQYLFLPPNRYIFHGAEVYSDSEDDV
Description: All compounds were dissolved in 10 mM stock solution in DMSO. […] The fluorescence was measured using a microplate reader (SpectraMax M5, Molecular Devices, San Jose, CA, USA) with excitation at 320 nm and emission at 420 nm. All reactions were done in triplicate.
IC50 were determined for other sirtuins using the same assay as for SIRT3.

SIRT3 = molecular target: T4, SIRT3 (Homo sapiens, UniProt Q9NTG7); assay: Fluorescent deacetylation assay with internally quenched acetyl peptide and trypsin development, SIRT3
T4 sequence (Q9NTG7 118-399): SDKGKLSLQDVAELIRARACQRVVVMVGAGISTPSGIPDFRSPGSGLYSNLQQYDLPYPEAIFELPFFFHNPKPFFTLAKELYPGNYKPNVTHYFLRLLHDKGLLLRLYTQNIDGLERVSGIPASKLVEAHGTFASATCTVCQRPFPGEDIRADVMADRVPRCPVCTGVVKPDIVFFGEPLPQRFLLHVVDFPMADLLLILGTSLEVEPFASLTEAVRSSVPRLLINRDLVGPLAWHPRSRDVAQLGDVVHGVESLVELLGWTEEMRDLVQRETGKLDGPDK

SIRT2 [5] = conditions: Figure 1, reported sirtuin inhibitors; cited from earlier work
SIRT1 [6] = conditions: Figure 1, reported sirtuin inhibitors; cited from earlier work

Chain of SIRT6 (Q8N6T7 whole entry): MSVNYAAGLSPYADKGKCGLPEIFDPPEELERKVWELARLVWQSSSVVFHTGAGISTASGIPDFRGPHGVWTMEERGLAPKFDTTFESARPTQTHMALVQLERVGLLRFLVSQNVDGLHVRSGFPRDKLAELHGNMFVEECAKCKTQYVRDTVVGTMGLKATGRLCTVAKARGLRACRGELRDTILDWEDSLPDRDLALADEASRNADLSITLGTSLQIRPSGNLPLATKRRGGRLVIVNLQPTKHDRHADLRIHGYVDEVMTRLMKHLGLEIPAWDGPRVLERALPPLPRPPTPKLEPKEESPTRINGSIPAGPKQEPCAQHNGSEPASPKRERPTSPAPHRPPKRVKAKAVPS

| SMILES | IC50 (SIRT5) | IC50 (SIRT6) | IC50 (SIRT2 [3]) | melting point | IC50 (SIRT1 [4]) | IC50 (SIRT3) | further results |
| --- | --- | --- | --- | --- | --- | --- | --- |
| CCn1c(=O)c2[nH]c(SSc3nc4c([nH]3)c(=O)n(CC)c(=O)n4CC)nc2n(CC)c1=O [Compound 1, 8,8′-Disulfanediylbis(1,3-diethyl-3,7-dihydro-1H-purine-2,6-dione)] | 0.42 ± 0.01 µM | 116 ± 6.2 µM | 1.17 ± 0.04 µM | – | – | – | Stability in the activity assays [1]: stable in the activity assays; Stability in DMSO [2]: remains stable |
| CCCn1c(=O)c2[nH]c(SSc3nc4c([nH]3)c(=O)n(CCC)c(=O)n4CCC)nc2n(CCC)c1=O [Compound 4, 8,8’-Disulfanediylbis(1,3-dipropyl-3,7-dihydro-1H-purine-2,6-dione)] | 0.39 ± 0.03 µM | 129 ± 16.1 µM | 1.19 ± 0.06 µM | 241 to 243 °C | – | – | Toxicity (MTT) at 50 μM (SH-SY5Y cells): displayed toxicity; Toxicity (MTT) at concentrations up to 20 μM (SH-SY5Y cells): nontoxic |
| CCn1c(=O)n(CC(C)C)c(=O)c2[nH]c(SSc3nc4c([nH]3)c(=O)n(CC(C)C)c(=O)n4CC)nc21 [Compound 12, 8,8’-Disulfanediylbis(3-ethyl-1-isobutyl-3,7-dihydro-1H-purine-2,6-dione)] | 1.51 ± 0.1 µM | 297 ± 11.3 µM | 4.86 ± 0.08 µM | 240 to 242 °C | 0.43 ± 0.03 µM | 1.77 ± 0.05 µM | – |
| CCn1c(=O)n(CC2CCOCC2)c(=O)c2[nH]c(SSc3nc4c([nH]3)c(=O)n(CC3CCOCC3)c(=O)n4CC)nc21 [Compound 13, 8,8’-Disulfanediylbis(3-ethyl-1-((tetrahydro-2H-pyran-4-yl)methyl)-3,7-dihydro-1H-purine-2,6-dione)] | 0.5 ± 0.01 µM | 156 ± 6.5 µM | 2.25 ± 0.12 µM | 229 to 231 °C | – | – | – |
| CCn1c(=O)n(CC2CCCO2)c(=O)c2[nH]c(SSc3nc4c([nH]3)c(=O)n(CC3CCCO3)c(=O)n4CC)nc21 (stereo not drawn) [Compound 14, 8,8’-Disulfanediylbis(3-ethyl-1-((tetrahydrofuran-2-yl)methyl)-3,7-dihydro-1H-purine-2,6-dione)] | 0.54 ± 0.02 µM | 127 ± 10.2 µM | 1.62 ± 0.05 µM | 166 to 168 °C | 0.15 ± 0.02 µM | 0.69 ± 0.12 µM | Fold enhanced activity compared to compound 12 (SIRT3) (SIRT3; relative to compound 12): 2.5 fold |
| CCn1c(=O)n(CCc2ccccc2)c(=O)c2[nH]c(SSc3nc4c([nH]3)c(=O)n(CCc3ccccc3)c(=O)n4CC)nc21 [Compound 15, 8,8’-Disulfanediylbis(3-ethyl-1-phenethyl-3,7-dihydro-1H-purine-2,6-dione)] | 0.45 ± 0.01 µM | 103 ± 6.3 µM | 1.35 ± 0.05 µM | 225 to 227 °C | – | – | Toxicity (MTT) at 50 μM (SH-SY5Y cells): displayed toxicity; Toxicity (MTT) at concentrations up to 20 μM (SH-SY5Y cells): nontoxic; Stability in the activity assays [1]: stable |
| CCn1c(=O)n(CCc2ccc(F)cc2)c(=O)c2[nH]c(SSc3nc4c([nH]3)c(=O)n(CCc3ccc(F)cc3)c(=O)n4CC)nc21 [Compound 16, 8,8’-Disulfanediylbis(3-ethyl-1-(4-fluorophenethyl)-3,7-dihydro-1H-purine-2,6-dione)] | 0.84 ± 0.08 µM | 111 ± 2.6 µM | 2.03 ± 0.04 µM | 216 to 218 °C | 0.19 ± 0.01 µM | 0.46 ± 0.04 µM | – |
| CCn1c(=O)n(CCc2ccc(NC(=O)OC(C)(C)C)cc2)c(=O)c2[nH]c(SSc3nc4c([nH]3)c(=O)n(CCc3ccc(NC(=O)OC(C)(C)C)cc3)c(=O)n4CC)nc21 [Compound 17, di-tert-Butyl(((Disulfanediylbis(3-ethyl-2,6-dioxo-2,3,6,7-tetrahydro-1H-purine-8,1-diyl))bis(ethane-2,1-diyl))bis(4,1-phenylene))dicarbamate] | 1 ± 0.03 µM | 128 ± 4.1 µM | 2.19 ± 0.08 µM | 168 to 171 °C | 0.41 ± 0.04 µM | 1.15 ± 0.08 µM | – |
| CCn1c(=O)n(CCc2ccc(OC)cc2)c(=O)c2[nH]c(SSc3nc4c([nH]3)c(=O)n(CCc3ccc(OC)cc3)c(=O)n4CC)nc21 [Compound 18, 8,8’-Disulfanediylbis(3-ethyl-1-(4-methoxyphenethyl)-3,7-dihydro-1H-purine-2,6-dione)] | – | 102 ± 9.1 µM | 2.16 ± 0.08 µM | 216 to 219 °C | – | – | – |
| CCn1c(=O)n(CCC(=O)Nc2cccc(C(F)(F)F)c2)c(=O)c2[nH]c(SSc3nc4c([nH]3)c(=O)n(CCC(=O)Nc3cccc(C(F)(F)F)c3)c(=O)n4CC)nc21 [Compound 19, 3,3’-(Disulfanediylbis(3-ethyl-2,6-dioxo-2,3,6,7-tetrahydro-1H-purine-8,1-diyl))bis(N-(3-(trifluoromethyl)phenyl)propanamide)] | 26.1 ± 3.15 µM | 452 ± 9.8 µM | 9.44 ± 0.19 µM | 174 to 175 °C | 1.87 ± 0.04 µM | 8.52 ± 0.22 µM | Fold reduced inhibitory activity compared with 15 (SIRT3) (SIRT3; relative to compound 15): 23 fold |
| CCn1c(=O)n(CCc2ccc(N)cc2)c(=O)c2[nH]c(SSc3nc4c([nH]3)c(=O)n(CCc3ccc(N)cc3)c(=O)n4CC)nc21 [Compound 20, 8,8’-Disulfanediylbis(1-(4-aminophenethyl)-3-ethyl-3,7-dihydro-1H-purine-2,6-dione)] | 0.92 ± 0.04 µM | 210 ± 5.9 µM | 4.61 ± 0.13 µM | – | 0.49 ± 0.01 µM | 0.97 ± 0.06 µM | – |
| CS(=O)(=O)NCCC1CCN(c2ncnc3cc(C(N)=O)sc23)CC1 [ELT-31, reference compound] | > 500 µM | 462 ± 14.9 µM | 0.12 ± 0.01 µM | – | – | – | – |
| CC(C(=O)Nc1cccc(/N=C/c2c(O)ccc3ccccc23)c1)c1ccccc1 (stereo not drawn) [salermide] | – | – | – | – | – | – | IC50 (SIRT1 [6]): 76 µM; IC50 (SIRT2 [5]): 45 µM |
| Cc1ccc(C(=O)Nc2ccc(S(=O)(=O)O)c3cc(S(=O)(=O)O)cc(S(=O)(=O)O)c23)cc1NC(=O)c1cccc(NC(=O)Nc2cccc(C(=O)Nc3cc(C(=O)Nc4ccc(S(=O)(=O)O)c5cc(S(=O)(=O)O)cc(S(=O)(=O)O)c45)ccc3C)c2)c1 [suramin] | – | – | – | – | – | – | IC50 (SIRT2 [5]): 1.2 µM |

From paper PMC7356367, “Design, Synthesis, and Biological Evaluation of 8-Mercapto-3,7-Dihydro-1H-Purine-2,6-Diones as Potent Inhibitors of SIRT1, SIRT2, SIRT3, and SIRT5” (Molecules, 2020)
